Measurements from PubChem BioAssay (NCI).
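Five compound concentrations were applied to cells in 96-well plates for 48 hours; endpoints were derived by simple linear interpolation of the resulting dose-response curve. The concentration for 50% growth inhibition is given as GI50. TGI: total growth inhibition.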

Experiments:
Assay in all cases: NCI tumour cell line growth inhibition, 48 h
[1] = system: RPMI-8226 leukemia
[2] = system: RXF 393 renal
[3] = system: MDA-MB-435
[4] = system: U251 CNS
[5] = system: SNB-19 CNS
[6] = system: SF-539 CNS
[7] = system: HCT-15 colon
[8] = system: HOP-62 NSCLC
[9] = system: HOP-18 NSCLC
[10] = system: KM20L2 colon
[11] = system: DU-145 prostate

COc1cc(/C=C2\C(=O)Nc3ccc(O)cc32)cc(OC)c1OC
GI50 [1]: 3.53 µM | TGI [1]: 21.3 µM | GI50 [2]: 2.19 µM | TGI [2]: 5.94 µM | GI50 [3]: 3.96 µM | TGI [3]: 17.1 µM | GI50 [4]: 4.08 µM | TGI [4]: 16.8 µM | GI50 [5]: 11.9 µM | TGI [5]: 40.6 µM | GI50 [6]: 5.86 µM | TGI [6]: 81.5 µM | GI50 [7]: 13.1 µM | TGI [7]: 41 µM

CCOC(=O)/C(C#N)=c1/s/c(=C(\O)N/N=C/c2ccc(OC)cc2)c(=N)n1-c1ccccc1
TGI [1]: > 100 µM | TGI [8]: > 100 µM | TGI [4]: > 100 µM | TGI [9]: > 100 µM | TGI [5]: > 100 µM | TGI [6]: > 100 µM

CS(=O)(=O)Sc1ccc(Cl)cc1
TGI [10]: 24.3 µM | TGI [1]: 41.9 µM | TGI [2]: 20.8 µM | TGI [8]: 5.29 µM | TGI [4]: 11.5 µM | TGI [9]: 55.4 µM | TGI [5]: 25.1 µM | TGI [6]: 10.9 µM | TGI [7]: 22.2 µM

O[C@@H]1CCCCN1Cc1cc2cc3c(cc2c2cc(OCc4ccccc4)ccc12)OCO3
GI50 [1]: 1.41 µM | TGI [1]: 3.38 µM | GI50 [8]: 1.55 µM | TGI [8]: 2.89 µM | GI50 [3]: 1.63 µM | TGI [3]: 3.06 µM | GI50 [11]: 1.63 µM | TGI [11]: 3.02 µM | GI50 [4]: 1.52 µM | TGI [4]: 2.95 µM | GI50 [5]: 1.63 µM | TGI [5]: 3.59 µM | GI50 [6]: 1.55 µM | TGI [6]: 2.96 µM | GI50 [7]: 1.81 µM | TGI [7]: 4.37 µM

CCCCCCCCCCCCOC(=N)N1CCOCC1
TGI [10]: 13.4 µM | TGI [1]: 5.15 µM | TGI [2]: 25.9 µM | TGI [8]: 33.3 µM | TGI [4]: 21.9 µM | TGI [9]: 16.3 µM | TGI [5]: 35.5 µM | TGI [6]: 19.1 µM | TGI [7]: 16.3 µM

Nc1ccc(Oc2ccc(C3(c4ccc(Oc5ccc(N)c(O)c5)cc4)C4CC5CC(C4)CC3C5)cc2)cc1O
TGI [1]: 5.64 µM | TGI [2]: 4.51 µM | TGI [8]: 4.73 µM | TGI [3]: 5.22 µM | TGI [11]: 3.68 µM | TGI [5]: 7.6 µM | TGI [6]: 2.35 µM

O=c1cc(O)c1=O
TGI [1]: > 100 µM | TGI [8]: > 100 µM | TGI [3]: > 100 µM | TGI [11]: > 100 µM | TGI [4]: > 100 µM | TGI [5]: > 100 µM | TGI [6]: > 100 µM | TGI [7]: > 100 µM

CC(C)OP(=O)(OC(C)C)C(=Nc1ccc(N=C(NNc2ccc([N+](=O)[O-])cc2)P(=O)(OC(C)C)OC(C)C)cc1)NNc1ccc([N+](=O)[O-])cc1
TGI [10]: > 100 µM | TGI [1]: > 100 µM | TGI [8]: > 100 µM | TGI [4]: > 100 µM | TGI [5]: > 100 µM | TGI [6]: > 100 µM | TGI [7]: > 100 µM
